Results taken from ChEMBL document CHEMBL1144741, “Review of cytotoxic cephalostatins and ritterazines: isolation and synthesis” (2008).

Test system: P388
Test: Antitumor activity against mouse P388 cells
Assay type: functional
Conditions: read-out: ED50 (the source's name)

Row | Compound | EC50 [nM]
1 | C[C@@H]1[C@]2(O[C@H]3C=C4[C@@H]5CC[C@H]6Cc7nc8c(nc7C[C@]6(C)[C@H]5C[C@@H](O)[C@]4(C)[C@]31O)C[C@@H]1CC[C@H]3C4=C[C@@H]5O[C@]6(O[C@](C)(CO)C[C@H]6O)[C@@H](C)[C@]5(O)[C@@]4(C)[C@H](O)C[C@@H]3[C@@]1(C)C8)O[C@](C)(CO)C[C@H]2O [CEPHALOSTATIN 12] | 76.2
2 | C[C@@H]1[C@@]2(CC[C@](C)(O)CO2)O[C@H]2C=C3[C@@H]4[C@@H](O)C[C@H]5Cc6nc7c(nc6C[C@]5(C)[C@H]4C[C@@H](O)[C@]3(C)[C@]21O)C[C@@H]1CC[C@@H]2[C@H](CC(=O)[C@]23C[C@@H]2O[C@@]4(CCC(C)(C)O4)[C@@H](C)[C@@H]2[C@]3(C)O)[C@@]1(C)C7 [RITTERAZINE A] | 14.2
3 | C[C@@H]1[C@H]2CC=C3[C@@H]4CC[C@H]5Cc6nc7c(nc6C[C@]5(C)[C@@]4(O)CC(=O)[C@@]32CO[C@]12OC(C)(C)C[C@H]2O)C[C@@H]1CC[C@H]2C3=C[C@@H]4O[C@@]5(CC[C@](C)(O)CO5)[C@@H](C)[C@]4(O)[C@@]3(C)[C@H](O)C[C@@H]2[C@@]1(C)C7 [CEPHALOSTATIN 16] | < 1.1
4 | C[C@@H]1[C@@]2(CC[C@](C)(O)CO2)O[C@H]2C=C3[C@@H]4[C@@H](O)C[C@H]5Cc6nc7c(nc6C[C@]5(C)[C@H]4C[C@@H](O)[C@]3(C)[C@]21O)C[C@@H]1CC[C@@H]2[C@H](CC(=O)[C@]3(C)[C@H]4C[C@@]5(CCC(C)(C)O5)O[C@H]4C[C@]23O)[C@@]1(C)C7 [RITTERAZINE I] | 15.3
5 | C[C@@H]1[C@@]2(CC[C@@](C)(CO)O2)O[C@H]2C=C3[C@@H]4[C@@H](O)C[C@H]5Cc6nc7c(nc6C[C@]5(C)[C@H]4C[C@@H](O)[C@]3(C)[C@]21O)C[C@@H]1CC[C@H]2[C@H]3C[C@@H]4O[C@]5(CCC(C)(C)O5)[C@@H](C)[C@@H]4[C@@]3(C)[C@H](O)C[C@@H]2[C@@]1(C)C7 [RITTERAZINE C] | 102
6 | CO[C@H]1c2nc3c(nc2C[C@@H]2CC[C@H]4C5=CC[C@@H]6[C@@H](C)[C@]7(OC[C@]56C(=O)C[C@@H]4[C@]21C)OC(C)(C)C[C@H]7O)C[C@@]1(C)[C@@H](CC[C@H]2C4=C[C@@H]5O[C@]6(O[C@](C)(CO)C[C@H]6O)[C@@H](C)[C@]5(O)[C@@]4(C)[C@H](O)C[C@@H]21)C3 [CEPHALOSTATIN 11] | 2.7
7 | C[C@H]1[C@@H](O)C2(Oc3cc4c(c5c3[C@H](C[C@H]5O)[C@@H]2C)CC[C@H]2Cc3nc5c(nc3C[C@]42C)C[C@@H]2CC[C@H]3C4=C[C@@H]6O[C@@]7(C[C@]6(O)[C@@]4(C)[C@H](O)C[C@@H]3[C@@]2(C)C5)O[C@](C)(CO)C[C@H]7O)OC1(C)C (some centres undefined) [CEPHALOSTATIN 5] | 42.5
8 | C[C@@H]1[C@@]2(CC[C@](C)(O)CO2)O[C@H]2C=C3[C@H]4CC[C@H]5Cc6nc7c(nc6C[C@]5(C)[C@H]4C[C@@H](O)[C@]3(C)[C@]21O)C[C@@H]1CC[C@H]2C3=C[C@@H]4O[C@]5(CC[C@@](C)(O)CO5)[C@@H](C)[C@]4(O)[C@@]3(C)[C@H](O)C[C@@H]2[C@@]1(C)C7 [RITTERAZINE K] | 10.4
9 | C[C@@H]1[C@@]2(CC[C@](C)(O)CO2)O[C@H]2C=C3[C@@H]4[C@@H](O)C[C@H]5Cc6nc7c(nc6C[C@]5(C)[C@H]4C[C@@H](O)[C@]3(C)[C@]21O)C[C@@H]1CC[C@H]2C3=C[C@@H]4O[C@]5(CC[C@@](C)(O)CO5)[C@@H](C)[C@]4(O)[C@@]3(C)[C@H](O)C[C@@H]2[C@@]1(C)C7 [RITTERAZINE J] | 14
10 | C[C@@H]1[C@H]2C[C@@H]3O[C@@]34[C@]3(O)CC[C@H]5Cc6nc7c(nc6C[C@]5(C)C3=CC(=O)[C@]24CO[C@]12OC(C)(C)C[C@H]2O)C[C@@H]1CC[C@H]2C3=C[C@@H]4O[C@]5(O[C@](C)(CO)C[C@H]5O)[C@@H](C)[C@]4(O)[C@@]3(C)[C@H](O)C[C@@H]2[C@@]1(C)C7 [CEPHALOSTATIN 14] | 4.4
11 | C[C@@H]1[C@@]2(CC[C@](C)(O)CO2)O[C@H]2C=C3[C@@H]4[C@@H](O)C[C@H]5Cc6nc7c(nc6C[C@]5(C)[C@H]4C[C@@H](O)[C@]3(C)[C@]21O)C[C@@H]1CC[C@H]2[C@H]3C[C@@H]4O[C@]5(CCC(C)(C)O5)C[C@@H]4[C@@]3(C)[C@H](O)C[C@@H]2[C@@]1(C)C7 [RITTERAZINE F] | 0.81
12 | C[C@@H]1[C@@]2(CC[C@](C)(O)CO2)O[C@H]2C=C3[C@@H]4[C@@H](O)C[C@H]5Cc6nc7c(nc6C[C@]5(C)[C@H]4C[C@@H](O)[C@]3(C)[C@]21O)C[C@@H]1CC[C@H]2[C@H]3C[C@@H]4O[C@@]5(CCC(C)(C)O5)C[C@@H]4[C@@]3(C)[C@H](O)C[C@@H]2[C@@]1(C)C7 [RITTERAZINE B] | 0.17
13 | C[C@@H]1[C@@]2(CC[C@](C)(O)CO2)O[C@H]2C=C3[C@@H]4[C@@H](O)C[C@H]5Cc6nc7c(nc6C[C@]5(C)[C@H]4C[C@@H](O)[C@]3(C)[C@]21O)C[C@@H]1CC[C@@H]2[C@H](CC(=O)[C@]23C[C@@H]2O[C@]4(CCC(C)(C)O4)[C@@H](C)[C@@H]2[C@]3(C)O)[C@@]1(C)C7 [RITTERAZINE D] | 17.5
14 | C[C@H]1[C@H]2C[C@@H](O)c3c4c(cc(c32)OC12OC(C)(C)C[C@H]2O)[C@@]1(C)Cc2nc3c(nc2C[C@@H]1CC4)C[C@@]1(C)[C@@H](CC[C@H]2C4=C[C@@H]5O[C@@]6(C[C@]5(O)[C@@]4(C)[C@H](O)C[C@@H]21)O[C@](C)(CO)C[C@H]6O)C3 (some centres undefined) [CEPHALOSTATIN 6] | 2.3
15 | C[C@@H]1[C@@]2(CC[C@](C)(O)CO2)O[C@H]2C=C3[C@@H]4[C@@H](O)C[C@H]5Cc6nc7c(nc6C[C@]5(C)[C@H]4C[C@@H](O)[C@]3(C)[C@]21O)C[C@@H]1CC[C@@H]2[C@H](CC(=O)[C@]23C[C@@H]2O[C@]4(C[C@H](C)C(C)(C)O4)[C@@H](C)[C@@H]2[C@]3(C)O)[C@@]1(C)C7 [RITTERAZINE E] | 3.8
16 | C[C@@H]1[C@H]2C[C@@H]3O[C@@]34[C@]3(O)CC[C@H]5Cc6nc7c(nc6C[C@]5(C)C3=CC(=O)[C@]24CO[C@]12OC(C)(C)[C@@H](C)[C@H]2O)C[C@@H]1CC[C@H]2C3=C[C@@H]4O[C@]5(O[C@](C)(CO)C[C@H]5O)[C@@H](C)[C@]4(O)[C@@]3(C)[C@H](O)C[C@@H]2[C@@]1(C)C7 [CEPHALOSTATIN 15] | 26.2

Further lines, results first:

Row | EC50 [nM] | Compound
17 | 522 | C[C@H]1[C@H]2[C@H](C=C3[C@@H]4CC[C@H]5Cc6nc7c(nc6C[C@]5(C)[C@@H]4C[C@@H](O)[C@@]32C)C[C@@H]2CC[C@@H]3[C@H](CC(=O)[C@]34C[C@@H]3O[C@@]5(CCC(C)(C)O5)[C@@H](C)[C@@H]3[C@]4(C)O)[C@@]2(C)C7)O[C@]12CC[C@](C)(O)CO2 [RITTERAZINE T]
18 | 16.7 | C[C@@H]1[C@@]2(CC[C@](C)(O)CO2)O[C@H]2C=C3[C@@H]4CC[C@H]5Cc6nc7c(nc6C[C@]5(C)[C@H]4C[C@@H](O)[C@]3(C)[C@]21O)C[C@@H]1CC[C@H]2C3=C[C@@H]4O[C@@]5(CC[C@](C)(O)CO5)[C@@H](C)[C@@H]4[C@@]3(C)[C@H](O)C[C@@H]2[C@@]1(C)C7 [RITTERAZINE M]
19 | 11.1 | C[C@@H]1[C@@]2(CC[C@](C)(O)CO2)O[C@H]2C=C3[C@@H]4CC[C@H]5Cc6nc7c(nc6C[C@]5(C)[C@H]4C[C@@H](O)[C@]3(C)[C@]21O)C[C@@H]1CC[C@H]2C3=C[C@@H]4O[C@]5(CC[C@@](C)(O)CO5)[C@@H](C)[C@@H]4[C@@]3(C)[C@H](O)C[C@@H]2[C@@]1(C)C7 [RITTERAZINE L]
20 | 3630 | C[C@H]1[C@H]2[C@H](C=C3[C@@H]4CC[C@H]5Cc6nc7c(nc6C[C@]5(C)[C@@H]4C[C@@H](O)[C@@]32C)C[C@@H]2CC[C@@H]3[C@H](CC(=O)[C@]34C[C@@H]3O[C@@]5(CCC(C)(C)O5)[C@@H](C)[C@@H]3[C@]4(C)O)[C@@]2(C)C7)O[C@]12C[C@](C)(CO)CO2 [RITTERAZINE W]
21 | 2380 | C[C@H]1[C@H]2[C@H](C[C@]3(C(=O)C[C@@H]4[C@H]3CC[C@H]3Cc5nc6c(nc5C[C@@]34C)C[C@@H]3CC[C@@H]4[C@H](CC(=O)[C@]45C[C@@H]4O[C@@]7(CCC(C)(C)O7)[C@@H](C)[C@@H]4[C@]5(C)O)[C@@]3(C)C6)[C@@]2(C)O)O[C@]12CCC(C)(C)O2 [RITTERAZINE O]
22 | 539 | C[C@H]1[C@H]2[C@H](C[C@@H]3[C@@H]4CC[C@H]5Cc6nc7c(nc6C[C@]5(C)[C@@H]4C[C@@H](O)[C@]23C)C[C@@H]2CC[C@H]3[C@H]4C[C@@H]5O[C@@]6(CCC(C)(C)O6)[C@@H](C)[C@@H]5[C@@]4(C)[C@H](O)C[C@@H]3[C@@]2(C)C7)O[C@]12CCC(C)(C)O2 [RITTERAZINE S]
23 | 2200 | C[C@@H]1[C@H](C)[C@]2(OC[C@]34C(=O)C[C@@H]5[C@@H](CC[C@H]6Cc7nc8c(nc7C[C@@]65C)C[C@@H]5CC[C@@H]6[C@H](CC(=O)[C@]67C[C@@H]6O[C@@]9(CCC(C)(C)O9)[C@@H](C)[C@@H]6[C@]7(C)O)[C@@]5(C)C8)[C@H]3C[C@H](O)[C@@H]4[C@H]2C)OC1(C)C [RITTERAZINE Z]
24 | 522 | C[C@H]1[C@H]2[C@H](C[C@]3(C(=O)C[C@@H]4[C@H]3CC[C@H]3Cc5nc6c(nc5C[C@@]34C)C[C@@H]3CC[C@@H]4[C@H](CC(=O)[C@]45C[C@@H]4O[C@@]7(CCC(C)(C)O7)[C@@H](C)[C@@H]4[C@]5(C)O)[C@@]3(C)C6)[C@@]2(C)O)O[C@@]12CCC(C)(C)O2 [RITTERAZINE N]
